Values of other authors, collected in patent publication US9505976B2, “Excitation-dependent fluorescent organic nanoparticles” (National Kaohsiung Normal University, priority 2013, dated 2016).

Conditions: in ethanol

In the case of `CCN(CC)c1ccc2c(C)cc(=O)oc2c1` [coumarin 1, 7-diethylamino-4-methylcoumarin], the “quantum yield of reference” value is listed as 73%.
